Reference: article PMC13128454, “Mutant p53 protein accumulation is selectively targetable by proximity-inducing drugs” (Nature Chemical Biology, 2025)
Where two headings read alike, the source gives them in different places. Each block holds one molecule with its values, some of them ahead of it.

Legend:
[1] = test system: cancer cell lines across DepMap; set-up: method as in DepMap; details: antiproliferative; GDSC1; ref DepMap; read-out: median IC50 across DepMap; cited from earlier work
[2] = test system: 293T cells stably expressing Halo–p53-Y220C ΔTAD–mCherry versus parental 293T cells; test: crystal violet staining; assay type: cell-based; details: 5 days
Method: The 293T cells were plated in six-well or 12-well plates at low density (~10% confluence) and treated with compound for the indicated duration. Cells were rinsed once with PBS and then stained with crystal violet (0.5% m/v) in 20% methanol–water for 10 min. Cells were washed with water five times and air-dried overnight.

[3] = test system: PLK1 targets (cyclin B1, phospho-PLK-binding motif) in Halo–p53-Y220C ΔTAD–mCherry 293T cells; test: western blot for PLK1 targets; assay type: cell-based; details: 8.5 h, double thymidine block
Method: (§1) Cells were split into a 10-cm dish at low confluency (20%) and grown overnight. Cells were synchronized with double thymidine block. Cells were treated with thymidine (2 mM) overnight and released into fresh medium for 8.5 h and then retreated with thymidine (2 mM) overnight. Cells were split into a six-well plate and released into medium containing compound for 8.5 h. Cells were pelleted and protein lysates were created using RIPA buffer containing Halt phosphatase and protease inhibitor (Thermo Fisher, 78440). Lysates were clarified by centrifugation (21,000g for 15 min) and the supernatant was denatured in 1× Lamelli buffer containing DTT by heating at 95 °C for 5 min. The resulting protein was loaded onto a Tris–acetate gel, transferred onto a PVDF membrane and treated with primary antibodies: cyclin B1 (D5C10, Cell Signaling Technologies, 12231T; 1:1,000) and phospho-PLK-binding motif (D73F6, Cell Signaling Technologies, 5243T; 1:1,000). The membrane was stained with IRDye 800CW goat anti-rabbit IgG secondary antibody (Licor Biosciences; 1:20,000) and imaged on an Odyssey DLx.

[4] = test system: PLK1 targets (cyclin B1, phospho-PLK-binding motif) in parental 293T cells; test: western blot for PLK1 targets; assay type: cell-based; details: 8.5 h, double thymidine block
Method: as §1

[5] = CellTiter-Glo cell viability; assay type: cell-based; details: human, read-out: mean_norm (normalized viability)
Method: (§2) Cells were plated in 384-well plates (typically 1,500 cells per well) with varying concentrations of compounds, with a total volume of 50 μl per well. CTG reagent was added (25 μl) to the solutions, mixed and read out using an EnVision 2105 multimode plate reader.

[6] = test system: DU145 cells; test: CellTiter-Glo cell viability; assay type: cell-based
Method: as §2

[7] = test system: Huh7 cells; test: CellTiter-Glo cell viability; assay type: cell-based
Method: as §2

[8] = test system: MCF7 cells; test: CellTiter-Glo cell viability; assay type: cell-based
Method: as §2

Compound: CC[C@@H]1C(=O)N(C)c2cnc(Nc3ccc(C(=O)NC4CCN(C)CC4)cc3OC)nc2N1C1CCCC1 [BI2536]
- IC50 [1]: 0.0118 µM

- IC50 ([6]; Homo sapiens, DU-145, 96 h, 4 day treatment): > 20 µM
- IC50 ([7]; Homo sapiens, Huh-7, 96 h, 4 day treatment): > 20 µM
- IC50 ([8]; Homo sapiens, 96 h, 4 day treatment): 2.81 µM
Compound: CC[C@@H]1C(=O)N(C)c2cnc(Nc3ccc(C(=O)NCCOCCOCCOCCOCCC(=O)N4CCC(Nc5cccc6c5cc(C#CCNc5ccc(S(C)(=O)=O)cc5OC)n6CC(F)(F)F)CC4)cc3OC)nc2N1C1CCCC1 [p53-01, PMV6-PEG4-BI2536]
- crystal violet staining [2]: differential antiproliferative activity
- PLK1 substrates by western blot [3]: phenocopied BI2536
- PLK1 substrates by western blot [4]: not in parental cells
- viability at 4 day ([5]; DU145 cells, Concentration 39.0625, 4 day): 104%
- viability at 4 day ([5]; DU145 cells, Concentration 78.125, 4 day): 101%
- viability at 4 day ([5]; DU145 cells, Concentration 156.25, 4 day): 97.4%
- viability at 4 day ([5]; DU145 cells, Concentration 312.5, 4 day): 96.2%
- viability at 4 day ([5]; DU145 cells, Concentration 625, 4 day): 97.2%
- viability at 4 day ([5]; DU145 cells, Concentration 1250, 4 day): 98.7%
- viability at 4 day ([5]; DU145 cells, Concentration 2500, 4 day): 98.2%
- viability at 4 day ([5]; DU145 cells, Concentration 5000, 4 day): 91.3%
- viability at 4 day ([5]; DU145 cells, Concentration 10000, 4 day): 79.5%
- viability at 4 day ([5]; DU145 cells, Concentration 20000, 4 day): 76.4%
- viability at 4 day ([5]; Huh7 cells, Concentration 39.0625, 4 day): 110%
- viability at 4 day ([5]; Huh7 cells, Concentration 78.125, 4 day): 104%
- viability at 4 day ([5]; Huh7 cells, Concentration 156.25, 4 day): 109%
- viability at 4 day ([5]; Huh7 cells, Concentration 312.5, 4 day): 104%
- viability at 4 day ([5]; Huh7 cells, Concentration 625, 4 day): 108%
- viability at 4 day ([5]; Huh7 cells, Concentration 1250, 4 day): 104%
- viability at 4 day ([5]; Huh7 cells, Concentration 2500, 4 day): 107%
- viability at 4 day ([5]; Huh7 cells, Concentration 5000, 4 day): 100%
- viability at 4 day ([5]; Huh7 cells, Concentration 10000, 4 day): 102%
- viability at 4 day ([5]; Huh7 cells, Concentration 20000, 4 day): 83.1%
- viability at 4 day ([5]; LNCaP cells, LNCAP, Concentration 39.0625, 4 day): 96.3%
- viability at 4 day ([5]; LNCaP cells, LNCAP, Concentration 78.125, 4 day): 93%
- viability at 4 day ([5]; LNCaP cells, LNCAP, Concentration 156.25, 4 day): 94.9%
- viability at 4 day ([5]; LNCaP cells, LNCAP, Concentration 312.5, 4 day): 97.9%
- viability at 4 day ([5]; LNCaP cells, LNCAP, Concentration 625, 4 day): 108%
- viability at 4 day ([5]; LNCaP cells, LNCAP, Concentration 1250, 4 day): 102%
- viability at 4 day ([5]; LNCaP cells, LNCAP, Concentration 2500, 4 day): 87.3%
- viability at 4 day ([5]; MCF7 cells, Concentration 1250, 4 day): 88.6%
- viability at 4 day ([5]; MCF7 cells, Concentration 2500, 4 day): 64.8%
- viability at 4 day ([5]; MCF7 cells, Concentration 5000, 4 day): 49.8%
- viability at 4 day ([5]; MCF7 cells, Concentration 10000, 4 day): 36.9%
- viability at 4 day ([5]; MCF7 cells, Concentration 20000, 4 day): 29.2%
- viability at 4 day ([5]; NUGC-3 cells, NUGC3, Concentration 39.0625, 4 day): 101%
- viability at 4 day ([5]; NUGC-3 cells, NUGC3, Concentration 78.125, 4 day): 98%
- viability at 4 day ([5]; NUGC-3 cells, NUGC3, Concentration 156.25, 4 day): 103%
- viability at 4 day ([5]; NUGC-3 cells, NUGC3, Concentration 312.5, 4 day): 98.2%
- viability at 4 day ([5]; NUGC-3 cells, NUGC3, Concentration 625, 4 day): 91.1%
- viability at 4 day ([5]; NUGC-3 cells, NUGC3, Concentration 1250, 4 day): 79.9%
- viability at 4 day ([5]; NUGC-3 cells, NUGC3, Concentration 2500, 4 day): 53.4%
- viability at 4 day ([5]; NUGC-3 cells, NUGC3, Concentration 5000, 4 day): 42.5%
- viability at 4 day ([5]; NUGC-3 cells, NUGC3, Concentration 10000, 4 day): 39.3%
- viability at 4 day ([5]; NUGC-3 cells, NUGC3, Concentration 20000, 4 day): 32.6%
- p5301_AUC_to_10uM [6]: 0.9088
- p5301_AUC_to_10uM [7]: 1
- p5301_AUC_to_10uM [8]: 0.5585
- mean_norm (normalized viability) ([8]; Concentration 39.0625, 4 day): 1.014
- mean_norm (normalized viability) ([8]; Concentration 78.125, 4 day): 0.9684
- mean_norm (normalized viability) ([8]; Concentration 156.25, 4 day): 0.9955
- mean_norm (normalized viability) ([8]; Concentration 312.5, 4 day): 1.001
- mean_norm (normalized viability) ([8]; Concentration 625, 4 day): 0.97
